Source: patent publication US20260109707A1, “HETEROBIFUNCTIONAL COMPOUNDS AND METHODS OF TREATING DISEASE” (Halda Therapeutics OpCo. Inc., priority 2022, published 2026)
Like-named read-outs stand apart in the source and are kept apart here.

What was measured:
[1] = system: T-Rex 293 cell line SC3 cells having increased expression of androgen receptor protein due to exposure to doxycycline; experiment: Cellular growth inhibition assay, T-Rex 293 SC3 cells with doxycycline (CellTiter-Glo, 72 hours); type: cell-based; conditions: T-Rex 293 SC3 cells with increased androgen receptor expression due to doxycycline (10 ng/mL)
In short: (§1)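 Doxycycline (10 ng/mL) was either included or omitted to toggle wild-type androgen receptor expression in SC3 cells, a T-Rex 293 clone, grown in stripped-serum, phenol red-free medium. After 72 hours with compound, viable cells were quantified by CellTiter-Glo 2.0.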

VCaP cells = experiment: Cellular growth inhibition assay for VCaP cells (CellTiter-Glo, 72 hours); type: cell-based, human
In short: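 Luminescent viability signal after 72 h of compound exposure gave GI50 values by four-parameter nonlinear regression. Compounds were added in 0.5% DMSO to cells plated 24 h earlier at 5000/well in DMEM containing 10% FBS.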

[2] = system: T-Rex 293 cell line SC3 cells lacking increased expression of androgen receptor protein; experiment: Cellular growth inhibition assay, T-Rex 293 SC3 cells without doxycycline (CellTiter-Glo, 72 hours); type: cell-based; conditions: T-Rex 293 cell line SC3 cells not exposed to doxycycline (lacking increased androgen receptor expression)
In short: as §1

SMILES	GI50 [1] [nM]	GI50 (VCaP cells) [nM]	GI50 [2] [nM]	GI50 ([1]; 72 h) [nM]	GI50 (VCaP cells; Homo sapiens, VCaP, 72 h) [nM]	GI50 ([2]; 72 h) [nM]
Cc1sc2c(c1C)C(c1ccc(N3CCC4CN(c5ccc(C(=O)N[C@H]6CC[C@H](Oc7ccc(C#N)c(Cl)c7)CC6)nn5)CCC4C3)cc1)=NC1(CC1)c1nnc(C)n1-2 (stereo partly drawn) [I-565]	< 500	> 3000	< 500	–	–	–
COC[C@@H]1N=C(c2ccc(N3CCC4(CC3)CCN(c3ccc(C(=O)N[C@H]5CC[C@H](Oc6ccc(C#N)c(Cl)c6)CC5)nn3)C4)cc2)c2c(sc(C)c2C)-n2c(C)nnc21 [I-566]	–	–	–	< 500	< 500	< 500
COCC[C@@H]1N=C(c2ccc(N3CCC4(CC3)CCN(c3ccc(C(=O)N[C@H]5CC[C@H](Oc6ccc(C#N)c(Cl)c6)CC5)nn3)C4)cc2)c2c(sc(C)c2C)-n2c(C)nnc21 [I-567]	–	–	–	< 500	< 500	< 500
COC[C@@H]1N=C(c2ccc(N3CCC4(CCCN(c5ccc(C(=O)N[C@H]6CC[C@H](Oc7ccc(C#N)c(Cl)c7)CC6)nn5)C4)CC3)cc2)c2c(sc(C)c2C)-n2c(C)nnc21 [I-568]	–	–	–	< 500	1500 to 3000	< 500
COCC[C@@H]1N=C(c2ccc(N3CCC4(CCCN(c5ccc(C(=O)N[C@H]6CC[C@H](Oc7ccc(C#N)c(Cl)c7)CC6)nn5)C4)CC3)cc2)c2c(sc(C)c2C)-n2c(C)nnc21 [I-569]	–	–	–	< 500	> 3000	> 3000
COCC1N=C(c2ccc(C#CC3CC4(C3)CN(c3ccc(C(=O)N[C@H]5CC[C@H](Oc6ccc(C#N)c(Cl)c6)CC5)nn3)C4)cc2)c2c(sc(C)c2C)-n2c(C)nnc21 (stereo partly drawn) [I-570]	–	–	> 3000	< 500	< 500	–
COCC1N=C(c2ccc(C#CC3CC4(C3)CN(c3ccc(C(=O)N[C@H]5CC[C@H](Oc6ccc(C#N)c(Cl)c6)CC5)nn3)C4)cc2)c2c(sc(C)c2C)-n2c(C)nnc21 (stereo partly drawn) [I-571]	< 500	< 500	< 500	–	–	–
COCC[C@@H]1N=C(c2ccc(C#CC3CC4(C3)CN(c3ccc(C(=O)N[C@H]5CC[C@H](Oc6ccc(C#N)c(Cl)c6)CC5)nn3)C4)cc2)c2c(sc(C)c2C)-n2c(C)nnc21 [I-572]	–	–	–	< 500	< 500	< 500
Cc1sc2c(c1C)C(c1ccc(C3CC(N4CCN(c5ccc(C(=O)N[C@H]6CC[C@H](Oc7ccc(C#N)c(Cl)c7)CC6)nn5)CC4)C3)cc1)=NC1(CC1)c1nnc(C)n1-2 (stereo partly drawn) [I-573]	–	–	–	< 500	< 500	< 500
CC[C@@H]1N=C(c2ccc(C3CCC4(CCN(c5ccc(C(=O)N[C@H]6CC[C@H](Oc7ccc(C#N)c(Cl)c7)CC6)nn5)CC4)C3)cc2)c2c(sc(C)c2C)-n2c(C)nnc21 (stereo partly drawn) [I-574]	–	–	–	< 500	< 500	> 3000
Cc1sc2c(c1C)C(c1ccc(C3CCC4(CCN(c5ccc(C(=O)N[C@H]6CC[C@H](Oc7ccc(C#N)c(Cl)c7)CC6)nn5)CC4)C3)nc1)=N[C@@H](C)c1nnc(C)n1-2 (stereo partly drawn) [I-575]	< 500	> 3000	–	–	–	< 500
Cc1sc2c(c1C)C(c1ccc(N3CC(CC4CCCN(c5ccc(C(=O)N[C@H]6CC[C@H](Oc7ccc(C#N)c(Cl)c7)CC6)nn5)C4)C3)cc1)=N[C@@H](C)c1nnc(C)n1-2 (stereo partly drawn) [I-576]	–	–	–	< 500	< 500	< 500
Cc1sc2c(c1C)C(c1ccc(N3CC(CC4CCCN(c5ccc(C(=O)N[C@H]6CC[C@H](Oc7ccc(C#N)c(Cl)c7)CC6)nn5)C4)C3)cc1)=N[C@@H](C)c1nnc(C)n1-2 (stereo partly drawn) [I-577]	< 500	500 to 1500	< 500	–	–	–
Cc1sc2c(c1C)C(c1ccc(CC3CCC4(C3)CN(c3ccc(C(=O)N[C@H]5CC[C@H](Oc6ccc(C#N)c(Cl)c6)CC5)nn3)CCO4)cc1)=N[C@@H](C)c1nnc(C)n1-2 (stereo partly drawn) [I-578]	–	500 to 1500	> 3000	< 500	–	–
Cc1sc2c(c1C)C(c1ccc(CC3CCC4(C3)CN(c3ccc(C(=O)N[C@H]5CC[C@H](Oc6ccc(C#N)c(Cl)c6)CC5)nn3)CCO4)cc1)=N[C@@H](C)c1nnc(C)n1-2 (stereo partly drawn) [I-579]	< 500	1500 to 3000	< 500	–	–	–
Cc1sc2c(c1C)C(c1ccc(CC3CCC4(C3)CN(c3ccc(C(=O)N[C@H]5CC[C@H](Oc6ccc(C#N)c(Cl)c6)CC5)nn3)CCO4)cc1)=N[C@@H](C)c1nnc(C)n1-2 (stereo partly drawn) [I-580]	< 500	< 500	< 500	–	–	–

SMILES	GI50 [1] [nM]	GI50 (VCaP cells) [nM]	GI50 [2] [nM]	GI50 ([1]; 72 h) [nM]	GI50 (VCaP cells; Homo sapiens, VCaP, 72 h) [nM]	GI50 ([2]; 72 h) [nM]
Cc1sc2c(c1C)C(c1ccc(CC3CCC4(C3)CN(c3ccc(C(=O)N[C@H]5CC[C@H](Oc6ccc(C#N)c(Cl)c6)CC5)nn3)CCO4)cc1)=N[C@@H](C)c1nnc(C)n1-2 (stereo partly drawn) [I-581]	< 500	< 500	< 500	–	–	–
Cc1sc2c(c1C)C(c1ccc(CC3CCC4(CCCN(c5ccc(C(=O)N[C@H]6CC[C@H](Oc7ccc(C#N)c(Cl)c7)CC6)nn5)C4)C3)cc1)=N[C@@H](C)c1nnc(C)n1-2 (stereo partly drawn) [I-582]	–	–	< 500	< 500	> 3000	–
Cc1sc2c(c1C)C(c1ccc(CC3CCC4(CCCN(c5ccc(C(=O)N[C@H]6CC[C@H](Oc7ccc(C#N)c(Cl)c7)CC6)nn5)C4)C3)cc1)=N[C@@H](C)c1nnc(C)n1-2 (stereo partly drawn) [I-583]	< 500	1500 to 3000	< 500	–	–	–
Cc1sc2c(c1C)C(c1ccc(CC3CCC4(CCCN(c5ccc(C(=O)N[C@H]6CC[C@H](Oc7ccc(C#N)c(Cl)c7)CC6)nn5)C4)C3)cc1)=N[C@@H](C)c1nnc(C)n1-2 (stereo partly drawn) [I-584]	< 500	1500 to 3000	< 500	–	–	–
Cc1sc2c(c1C)C(c1ccc(CC3CCC4(CCCN(c5ccc(C(=O)N[C@H]6CC[C@H](Oc7ccc(C#N)c(Cl)c7)CC6)nn5)C4)C3)cc1)=N[C@@H](C)c1nnc(C)n1-2 (stereo partly drawn) [I-585]	< 500	> 3000	> 3000	–	–	–
Cc1sc2c(c1C)C(c1ccc(COC3CCC4(C3)CN(c3ccc(C(=O)N[C@H]5CC[C@H](Oc6ccc(C#N)c(Cl)c6)CC5)nn3)CCO4)cc1)=N[C@@H](C)c1nnc(C)n1-2 (stereo partly drawn) [I-586]	< 500	500 to 1500	–	–	–	< 500
Cc1sc2c(c1C)C(c1ccc(OC3CN(C(C)(C)C4CCN(c5ccc(C(=O)N[C@H]6CC[C@H](Oc7ccc(C#N)c(Cl)c7)CC6)nn5)CC4)C3)cc1)=N[C@@H](C)c1nnc(C)n1-2 [I-587]	–	–	–	< 500	1500 to 3000	< 500
Cc1sc2c(c1C)C(c1ccc(C3CC(N4CCN(c5ccc(C(=O)N[C@H]6CC[C@H](Oc7ccc(C#N)c(Cl)c7)CC6)nn5)CC4)C3)cc1)=N[C@@H](C)c1nnc(C)n1-2 (stereo partly drawn) [I-589]	–	–	–	< 500	< 500	< 500
Cc1sc2c(c1C)C(c1ccc(C3CCC4(CC3)CCN(c3ccc(C(=O)N[C@H]5CC[C@H](Oc6ccc(C#N)c(Cl)c6)CC5)nn3)CC4)cc1)=N[C@@H](C)c1nnc(C)n1-2 [I-590]	–	–	–	< 500	> 3000	< 500
Cc1sc2c(c1C)C(c1ccc(N3CCC4(CC3)CCN(c3ccc(C(=O)N[C@H]5CC[C@H](Oc6ccc(C#N)c(Cl)c6)CC5)nn3)C4)cc1)=N[C@H](C)c1nnc(C)n1-2 [I-591]	–	–	–	< 500	< 500	> 3000
Cc1sc2c(c1C)C(c1ccc(CCCC3CCN(c4ccc(C(=O)N[C@H]5CC[C@H](Oc6ccc(C#N)c(Cl)c6)CC5)nn4)CC3)cc1)=N[C@@H](C)c1nnc(C)n1-2 [I-592]	–	–	–	< 500	< 500	< 500
Cc1sc2c(c1C)C(c1ccc(CCC3CCN(c4ccc(C(=O)NC5CCC(Oc6ccc(C#N)c(Cl)c6)CC5)nn4)CC3)cc1)=NC(C)c1nnc(C)n1-2 (stereo not drawn) [I-593]	–	–	–	< 500	< 500	< 500
Cc1sc2c(c1C)C(c1ccc(N3CC4(CC(CCc5ccc(C(=O)N[C@H]6CC[C@H](Oc7ccc(C#N)c(Cl)c7)CC6)nn5)C4)C3)cc1)=N[C@@H](C)c1nnc(C)n1-2 [I-594]	–	–	–	< 500	500 to 1500	500 to 1500
Cc1sc2c(c1C)C(c1ccc(OC3(C)CC4(CN(c5ccc(C(=O)N[C@H]6CC[C@H](Oc7ccc(C#N)c(Cl)c7)CC6)nn5)C4)C3)cc1)=N[C@@H](C)c1nnc(C)n1-2 [I-595]	–	–	–	< 500	500 to 1500	< 500
Cc1sc2c(c1C)C(c1ccc(N3CCC(CCc4ccc(C(=O)N[C@H]5CC[C@H](Oc6ccc(C#N)c(Cl)c6)CC5)nn4)CC3)cc1)=N[C@@H](C)c1nnc(C)n1-2 [I-596]	–	–	–	< 500	< 500	< 500
